Values after ≈ are worked out from the molar mass of the structure shown. Read-outs that look alike come from different tables or passages of the source.
Experiments:
[1] = tested on: variety of cancers including small cell lung cancer, non-lymphocytic leukemia and non-seminomatous testicular cancer; conditions: clinical, background statement; cited from earlier work
[2] = Haim et al. 1986; cited from earlier work
B16-F10 = assay: In vitro cytotoxicity assay, B16-F10 murine melanoma; format: cell-based; conditions: dissolved in DMSO, two unlabelled lines of values
Protocol: (§1) The in vitro cytotoxicity assay involves growing various mammalian tumor cells, including human tumor cells, on Microtiter plates employing established tissue culture methods. The concentration of each compound required to inhibit cell growth by 50% (IC50) is then determined by a four-fold serial dilution technique. The validity of the method has been supported by a report published in the "Proceedings of the American Association for Cancer Research", 1984, 25: 1891 (Abst. No. 328). Tumor cells of the following type were employed: B16-F10 murine melanoma, Moser human colon, SW900 human lung resistant to teniposide (VM) and etoposide (VP) and three human colon tumor cell lines, i.e. HCT-116, HCT-VM and HCT-VP, the latter two being resistant to teniposide (VM) and etoposide (VP), respectively. IC50 values less than […] are a positive indicator of antitumor activity. Table I presents IC50 values against the above-mentioned cell lines.

P388 murine leukemia = assay: Antitumor activity against murine P388 leukemia in CDF1 mice; format: in vivo
Protocol: Female CDF1 mice were implanted intraperitoneally with a tumor inoculum of 10^6 ascites cells of P388 murine leukemia and treated with various doses of the compound of Example 4; four mice were used for each dose level and ten were used as saline-treated control. The compound was administered by intraperitoneal injection in two injections on day 1 and day 5. Antitumor activity was expressed as %T/C which is the ratio of the median survival time (MST) of the drug-treated group to the MST of the saline-treated control group. A compound showing a %T/C of 125 or greater is generally considered to have significant antitumor activity in the P388 test. The experiment lasted 31 days at the end of which time the number of survivors was noted.

HCT/VP35 = assay: In vitro cytotoxicity assay, HCT/VP35 human colon, etoposide resistant; format: cell-based; conditions: dissolved in DMSO, two unlabelled lines of values
Protocol: as §1

MOSER = assay: In vitro cytotoxicity assay, Moser human colon; format: cell-based; conditions: dissolved in DMSO, two unlabelled lines of values
Protocol: as §1

SMILES | activity in the treatment of cancers [1] | metabolites formed on peroxidative activation [2] | IC50 (B16-F10; B16-F10) [µg/mL] | IC50 (B16-F10; Mus musculus, B16-F10, B16-F10, read-out: IC50) [µg/mL] | MST (median survival time) (P388 murine leukemia; 150 mg/kg/inj., i.p., days 1 and 5, dose with maximum effect, saline control 10.0 days) [days] | Day 5 No. mice alive/total (P388 murine leukemia; 150 mg/kg/inj., i.p., day 5) | mice alive at day 31 (P388 murine leukemia; day 31, test or control group) | % T/C (MST treated / MST control) (P388 murine leukemia; maximum %T/C, at 150 mg/kg/inj., i.p., days 1 and 5, 125 or greater is significant) [%] | IC50 (HCT/VP35; HCT/VP35, resistant to etoposide) [µg/mL] | IC50 (HCT/VP35; Homo sapiens, HCT/VP35, HCT/VP35, resistant to etoposide, read-out: IC50) [µg/mL] | IC50 (MOSER; Homo sapiens, read-out: IC50) [µg/mL] | IC50 (MOSER) [µg/mL]
COc1cc([C@@H]2c3cc4c(cc3[C@@H](O[C@@H]3O[C@@H]5CO[C@@H](C)O[C@H]5[C@H](O)[C@H]3O)[C@H]3COC(=O)[C@H]23)OCO4)cc(OC)c1O [Etoposide] | active in the treatment of a variety of cancers | formation of two metabolites, one of which has been identified as the corresponding orthoquinone III |  |  |  |  |  |  |  |  |  | 
COc1cc(OC)cc([C@@H]2c3cc4c(cc3[C@@H](O[C@@H]3O[C@@H]5CO[C@@H](C)O[C@H]5[C@H](O)[C@H]3O)[C@H]3COC(=O)[C@H]23)OCO4)c1 [Example 4, 4'-Desmethoxyetoposide] |  |  | 27 (≈ 47.2 µM) | 23 (≈ 40.2 µM) | 17.5 | 4/4 | no mice were alive | 175 | 3.5 (≈ 6.11 µM) | 3.3 (≈ 5.76 µM) | 60 (≈ 105 µM) | 31 (≈ 54.1 µM)
COc1cc([C@@H]2c3cc4c(cc3[C@@H](O[C@@H]3O[C@@H]5CO[C@@H](c6cccs6)O[C@H]5[C@H](O)[C@H]3O)[C@H]3COC(=O)[C@H]23)OCO4)cc(OC)c1O [Teniposide] | active in the treatment of a variety of cancers | formation of two metabolites, one of which has been identified as the corresponding orthoquinone III |  |  |  |  |  |  |  |  |  | 
